Laboratory results as given in patent EP4745135A1 (Gluetacs Therapeutics (Shanghai) Co., Ltd., priority 2023, dated 2025).

How the values were obtained:
[1] = target: T1, CK1α (Homo sapiens, UniProt P48729+Q96SW2); test: Western blot, degradation of substrate protein in hPBMCs; assay type: cell-based
T1 construct: effects of the compounds of the present disclosure on the expression of target proteins in cells; endogenous in cells; host or cells: human PBMCs (Milecell Biotechnologies)

[2] = target: T2, IKZF3 (Homo sapiens, UniProt Q96SW2+Q9UKT9); test: as above; assay type: cell-based
T2 construct: effects of the compounds of the present disclosure on the expression of target proteins in cells; endogenous in cells; host or cells: human PBMCs (Milecell Biotechnologies)

[3] = target: T3, WEE1 (Homo sapiens, UniProt P30291+Q96SW2); test: as above; assay type: cell-based
T3 construct: effects of the compounds of the present disclosure on the expression of target proteins in cells; endogenous in cells; host or cells: human PBMCs (Milecell Biotechnologies)

[4] = target: T4, IKZF1 (Homo sapiens, UniProt Q13422+Q96SW2); test: as above; assay type: cell-based
T4 construct: effects of the compounds of the present disclosure on the expression of target proteins in cells; endogenous in cells; host or cells: human PBMCs (Milecell Biotechnologies)

[5] = target: T5, IKZF2 (Homo sapiens, UniProt Q96SW2+Q9UKS7); test: as above; assay type: cell-based
T5 construct: effects of the compounds of the present disclosure on the expression of target proteins in cells; endogenous in cells; host or cells: human PBMCs (Milecell Biotechnologies)

[6] = system: GSPT1; test: as above; assay type: cell-based, Human
[7] = target: T6, human Cereblon WT GST-tagged protein (Homo sapiens, UniProt Q96SW2); test: CRBN-binding affinity, HTRF (CEREBLON BINDING kit); conditions: for inhibition at 0.5 µM: read-out: Inhibition Rate at 0.5 µM (%); for inhibition at 2 µM: read-out: Inhibition Rate at 2 µM (%)
T6 construct: purchased CISBIO 64BDCRBNPEH

[8] = 24 hours treatment, compounds at 50 nM and 500 nM (concentration behind the class not stated)
[9] = Western blot, 24 hours of compound treatment, compounds tested at 50 nM and 500 nM (concentration for the table not stated)

T3 sequence (P30291 whole entry): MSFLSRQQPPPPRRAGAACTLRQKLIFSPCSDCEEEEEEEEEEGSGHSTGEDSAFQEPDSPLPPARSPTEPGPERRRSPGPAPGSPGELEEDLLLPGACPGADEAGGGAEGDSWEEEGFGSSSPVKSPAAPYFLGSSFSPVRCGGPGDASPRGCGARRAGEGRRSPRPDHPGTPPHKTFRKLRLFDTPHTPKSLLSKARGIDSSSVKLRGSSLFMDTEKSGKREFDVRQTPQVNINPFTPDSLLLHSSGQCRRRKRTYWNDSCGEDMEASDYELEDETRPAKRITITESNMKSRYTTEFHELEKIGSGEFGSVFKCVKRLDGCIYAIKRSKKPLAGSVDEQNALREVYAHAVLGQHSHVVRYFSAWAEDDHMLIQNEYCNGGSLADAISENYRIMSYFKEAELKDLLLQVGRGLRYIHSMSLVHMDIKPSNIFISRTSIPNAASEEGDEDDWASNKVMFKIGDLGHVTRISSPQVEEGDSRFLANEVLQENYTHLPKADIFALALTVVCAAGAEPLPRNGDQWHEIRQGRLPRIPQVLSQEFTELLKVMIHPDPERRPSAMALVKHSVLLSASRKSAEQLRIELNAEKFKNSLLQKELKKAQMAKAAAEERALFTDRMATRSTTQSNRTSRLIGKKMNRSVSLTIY
T3 sequence (Q96SW2 whole entry): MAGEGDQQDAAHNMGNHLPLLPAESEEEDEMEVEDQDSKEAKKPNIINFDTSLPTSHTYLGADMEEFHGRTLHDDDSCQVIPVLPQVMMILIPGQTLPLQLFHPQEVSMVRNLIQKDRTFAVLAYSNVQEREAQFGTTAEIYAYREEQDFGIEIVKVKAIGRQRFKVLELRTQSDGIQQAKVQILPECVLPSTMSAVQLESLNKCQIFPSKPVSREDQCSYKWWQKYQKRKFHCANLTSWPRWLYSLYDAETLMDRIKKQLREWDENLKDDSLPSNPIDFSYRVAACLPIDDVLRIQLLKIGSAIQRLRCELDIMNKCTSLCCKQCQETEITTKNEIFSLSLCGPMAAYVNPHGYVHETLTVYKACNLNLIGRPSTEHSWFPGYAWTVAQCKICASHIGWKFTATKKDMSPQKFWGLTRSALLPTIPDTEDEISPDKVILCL
T3 sequence (Q16531 whole entry partner): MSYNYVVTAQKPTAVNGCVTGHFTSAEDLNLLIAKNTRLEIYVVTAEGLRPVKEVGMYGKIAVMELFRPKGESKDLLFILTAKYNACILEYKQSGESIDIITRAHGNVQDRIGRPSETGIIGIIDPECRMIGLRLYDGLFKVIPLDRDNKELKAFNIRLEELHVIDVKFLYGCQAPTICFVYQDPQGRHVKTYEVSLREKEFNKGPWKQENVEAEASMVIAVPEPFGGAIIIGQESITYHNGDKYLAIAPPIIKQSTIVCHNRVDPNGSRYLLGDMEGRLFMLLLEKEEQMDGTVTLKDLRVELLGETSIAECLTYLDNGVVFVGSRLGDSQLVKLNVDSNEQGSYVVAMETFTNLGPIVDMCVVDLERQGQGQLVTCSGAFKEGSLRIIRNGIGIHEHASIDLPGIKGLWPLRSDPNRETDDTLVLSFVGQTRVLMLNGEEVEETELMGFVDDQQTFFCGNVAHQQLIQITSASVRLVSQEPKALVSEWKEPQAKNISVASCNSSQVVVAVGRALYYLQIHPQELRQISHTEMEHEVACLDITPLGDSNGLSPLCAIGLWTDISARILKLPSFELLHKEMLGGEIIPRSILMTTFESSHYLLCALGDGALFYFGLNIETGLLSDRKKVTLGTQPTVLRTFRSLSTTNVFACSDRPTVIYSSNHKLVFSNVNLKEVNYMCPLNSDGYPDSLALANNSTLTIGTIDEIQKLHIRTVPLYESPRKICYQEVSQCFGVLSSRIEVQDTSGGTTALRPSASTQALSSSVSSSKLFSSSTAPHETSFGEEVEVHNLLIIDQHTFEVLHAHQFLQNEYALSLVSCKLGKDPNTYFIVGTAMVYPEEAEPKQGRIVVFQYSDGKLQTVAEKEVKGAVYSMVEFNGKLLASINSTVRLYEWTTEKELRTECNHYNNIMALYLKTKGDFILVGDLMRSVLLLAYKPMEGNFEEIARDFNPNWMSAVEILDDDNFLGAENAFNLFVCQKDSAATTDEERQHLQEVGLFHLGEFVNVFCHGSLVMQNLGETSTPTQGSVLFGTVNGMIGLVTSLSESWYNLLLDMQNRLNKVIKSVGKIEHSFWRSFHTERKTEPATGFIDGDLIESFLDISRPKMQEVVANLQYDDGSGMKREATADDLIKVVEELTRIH
T6 sequence (Q96SW2 whole entry): as the sequence (Q96SW2 whole entry) above
T5 sequence (Q9UKS7 whole entry): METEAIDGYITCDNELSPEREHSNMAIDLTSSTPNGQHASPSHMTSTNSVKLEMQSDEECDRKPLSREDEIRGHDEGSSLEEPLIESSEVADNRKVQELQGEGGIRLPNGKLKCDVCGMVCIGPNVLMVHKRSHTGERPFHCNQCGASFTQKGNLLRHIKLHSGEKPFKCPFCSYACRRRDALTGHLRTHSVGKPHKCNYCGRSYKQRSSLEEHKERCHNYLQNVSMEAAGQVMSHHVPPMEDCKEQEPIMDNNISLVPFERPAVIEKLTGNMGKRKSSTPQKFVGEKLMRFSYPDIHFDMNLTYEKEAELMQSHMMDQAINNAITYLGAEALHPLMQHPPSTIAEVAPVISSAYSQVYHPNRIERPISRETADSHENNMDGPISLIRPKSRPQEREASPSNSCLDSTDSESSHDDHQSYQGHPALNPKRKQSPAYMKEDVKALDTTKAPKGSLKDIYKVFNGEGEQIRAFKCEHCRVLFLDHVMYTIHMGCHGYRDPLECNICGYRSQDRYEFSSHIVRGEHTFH
T5 sequence (Q96SW2 whole entry): as the sequence (Q96SW2 whole entry) above
T5 sequence (Q16531 whole entry partner): as the sequence (Q16531 whole entry partner) above
T2 sequence (Q9UKT9 whole entry): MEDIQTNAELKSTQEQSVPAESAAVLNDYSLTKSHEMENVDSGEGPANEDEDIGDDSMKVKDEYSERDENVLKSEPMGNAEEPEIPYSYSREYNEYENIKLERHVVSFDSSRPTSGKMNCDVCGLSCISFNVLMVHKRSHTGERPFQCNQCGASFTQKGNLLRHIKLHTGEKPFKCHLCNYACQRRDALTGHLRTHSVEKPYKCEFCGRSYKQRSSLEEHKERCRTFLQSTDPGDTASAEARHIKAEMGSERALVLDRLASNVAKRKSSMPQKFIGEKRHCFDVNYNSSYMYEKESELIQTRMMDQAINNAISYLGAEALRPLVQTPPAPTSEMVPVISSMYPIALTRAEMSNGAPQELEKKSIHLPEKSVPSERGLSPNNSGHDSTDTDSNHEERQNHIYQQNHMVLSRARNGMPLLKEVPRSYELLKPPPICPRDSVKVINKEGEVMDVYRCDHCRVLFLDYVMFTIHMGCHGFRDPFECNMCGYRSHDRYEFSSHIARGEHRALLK
T2 sequence (Q96SW2 whole entry): as the sequence (Q96SW2 whole entry) above
T2 sequence (Q16531 whole entry partner): as the sequence (Q16531 whole entry partner) above
T4 sequence (Q13422 whole entry): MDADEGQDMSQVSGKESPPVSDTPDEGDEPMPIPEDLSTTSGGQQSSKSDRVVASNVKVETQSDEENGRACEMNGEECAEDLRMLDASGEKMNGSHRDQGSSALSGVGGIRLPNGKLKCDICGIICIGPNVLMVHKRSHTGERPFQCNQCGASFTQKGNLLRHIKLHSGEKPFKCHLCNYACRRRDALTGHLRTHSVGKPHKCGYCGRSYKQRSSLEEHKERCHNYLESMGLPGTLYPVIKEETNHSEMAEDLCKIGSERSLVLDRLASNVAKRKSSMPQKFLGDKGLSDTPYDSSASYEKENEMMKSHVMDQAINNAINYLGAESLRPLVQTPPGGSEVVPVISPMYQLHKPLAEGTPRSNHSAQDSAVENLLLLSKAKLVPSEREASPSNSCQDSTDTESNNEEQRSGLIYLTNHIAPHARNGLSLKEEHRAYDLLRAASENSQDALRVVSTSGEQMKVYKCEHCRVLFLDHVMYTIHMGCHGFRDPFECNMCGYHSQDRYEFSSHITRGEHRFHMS
T4 sequence (Q96SW2 whole entry): as the sequence (Q96SW2 whole entry) above
T4 sequence (Q16531 whole entry partner): as the sequence (Q16531 whole entry partner) above
T1 sequence (P48729 whole entry): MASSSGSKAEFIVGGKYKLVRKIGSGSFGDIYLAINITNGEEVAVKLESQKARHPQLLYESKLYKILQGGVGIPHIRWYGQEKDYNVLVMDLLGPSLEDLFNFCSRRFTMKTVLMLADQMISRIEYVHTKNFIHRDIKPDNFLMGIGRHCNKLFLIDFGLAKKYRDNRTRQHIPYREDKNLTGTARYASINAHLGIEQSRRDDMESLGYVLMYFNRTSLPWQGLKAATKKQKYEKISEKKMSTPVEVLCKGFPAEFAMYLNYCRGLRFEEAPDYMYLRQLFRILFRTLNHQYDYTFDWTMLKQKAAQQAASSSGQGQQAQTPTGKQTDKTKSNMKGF
T1 sequence (Q96SW2 whole entry): as the sequence (Q96SW2 whole entry) above
T1 sequence (Q16531 whole entry partner): as the sequence (Q16531 whole entry partner) above

| Structure (SMILES) | inhibition at 0.5 µM [7] | inhibition at 2 µM [7] | CK1α substrate protein remaining % [1, 8] | IKZF3 substrate protein remaining % [2, 8] | Wee1 substrate protein remaining % [3, 8] | IKZF 1 substrate protein remaining % [4, 8] | IKZF2 substrate protein remaining % [5, 8] | GSPT1 substrate protein remaining % [6, 8] | CK1α substrate protein remaining % [1, 9] | IKZF3 substrate protein remaining % [2, 9] | Wee1 substrate protein remaining % [3, 9] | IKZF 1 substrate protein remaining % [4, 9] | IKZF2 substrate protein remaining % [5, 9] | GSPT1 substrate protein remaining % [6, 9] |
| --- | --- | --- | --- | --- | --- | --- | --- | --- | --- | --- | --- | --- | --- | --- |
| CC(C)c1cc2c(C3=CCN(Cc4cccc5c4CN(C4CCC(=O)NC4=O)C5=S)CC3)ncnc2s1 (stereo not drawn) [GT-08954, 3-(4-((4-(6-isopropylthieno[2,3-d]pyrimidin-4-yl)-3,6-dihydropyridin-1(2H)-yl)methyl)-1-thioxoisoindolin-2-yl)piperidine-2,6-dione] | 40 to 53% | 60 to 80% | B (80%< substrate protein remaining %≤ 100%) | B (80%< substrate protein remaining %≤ 100%) | A (0% ≤ substrate protein remaining % ≤ 80%) | B (80%< substrate protein remaining %≤ 100%) | B (80%< substrate protein remaining %≤ 100%) | A (0% ≤ substrate protein remaining % ≤ 80%) | – | – | – | – | – | – |
| O=C1CCC(N2Cc3cc(CN4CCN(c5ncccc5Cl)CC4)ccc3C2=S)C(=O)N1 (stereo not drawn) [GT-09219, 3-(5-((4-(3-chloropyridin-2-yl)piperazin-1-yl)methyl)-1-thioxoisoindolin-2-yl)piperidine-2,6-dione] | 60 to 80% | 80 to 100% | – | – | – | – | – | – | B (80%< substrate protein remaining %≤ 100%) | B (80%< substrate protein remaining %≤ 100%) | B (80%< substrate protein remaining %≤ 100%) | B (80%< substrate protein remaining %≤ 100%) | A (0% ≤ substrate protein remaining % ≤ 80%) | A (0% ≤ substrate protein remaining % ≤ 80%) |
| O=C1CCC(N2Cc3c(CN4CC=C(c5cncc(Cl)c5Cl)CC4)cccc3C2=S)C(=O)N1 (stereo not drawn) [GT-08460, 3-(4-((4,5-dichloro-3',6'-dihydro-[3,4'-bipyridin]-1'(2'H)-yl)methyl)-1-thioxoisoindolin-2-yl)piperidine-2,6-dione] | 60 to 80% | 80 to 100% | – | – | – | – | – | – | B (80%< substrate protein remaining %≤ 100%) | A (0% ≤ substrate protein remaining % ≤ 80%) | A (0% ≤ substrate protein remaining % ≤ 80%) | B (80%< substrate protein remaining %≤ 100%) | B (80%< substrate protein remaining %≤ 100%) | B (80%< substrate protein remaining %≤ 100%) |
| O=C1CCC(N2Cc3cc(CN4CC=C(c5ncnc6scc(-c7ccccc7)c56)CC4)ccc3C2=S)C(=O)N1 (stereo not drawn) [GT-09320, 3-(5-((4-(5-phenylthieno[2,3-d]pyrimidin-4-yl)-3,6-dihydropyridin-1(2H)-yl)methyl)-1-thioxoisoindolin-2-yl)piperidine-2,6-dione] | 60 to 80% | 80 to 100% | B (80%< substrate protein remaining %≤ 100%) | B (80%< substrate protein remaining %≤ 100%) | A (0% ≤ substrate protein remaining % ≤ 80%) | B (80%< substrate protein remaining %≤ 100%) | B (80%< substrate protein remaining %≤ 100%) | A (0% ≤ substrate protein remaining % ≤ 80%) | – | – | – | – | – | – |
| O=C1CCC(N2Cc3cc(CN4CCN(c5ncccc5C(F)(F)F)CC4)ccc3C2=S)C(=O)N1 (stereo not drawn) [GT-09223, 3-(1-thioxo-5-((4-(3-(trifluoromethyl)pyridin-2-yl)piperazin-1-yl)methyl)isoindolin-2-yl)piperidine-2,6-dione] | 60 to 80% | 80 to 100% | – | – | – | – | – | – | A (0% ≤ substrate protein remaining % ≤ 80%) | B (80%< substrate protein remaining %≤ 100%) | A (0% ≤ substrate protein remaining % ≤ 80%) | B (80%< substrate protein remaining %≤ 100%) | B (80%< substrate protein remaining %≤ 100%) | B (80%< substrate protein remaining %≤ 100%) |

Second part, led by results:

| inhibition at 0.5 µM [7] | inhibition at 2 µM [7] | Structure (SMILES) | CK1α substrate protein remaining % [1, 8] | IKZF3 substrate protein remaining % [2, 8] | Wee1 substrate protein remaining % [3, 8] | IKZF 1 substrate protein remaining % [4, 8] | IKZF2 substrate protein remaining % [5, 8] | GSPT1 substrate protein remaining % [6, 8] | CK1α substrate protein remaining % [1, 9] | IKZF3 substrate protein remaining % [2, 9] | Wee1 substrate protein remaining % [3, 9] | IKZF 1 substrate protein remaining % [4, 9] | IKZF2 substrate protein remaining % [5, 9] | GSPT1 substrate protein remaining % [6, 9] |
| --- | --- | --- | --- | --- | --- | --- | --- | --- | --- | --- | --- | --- | --- | --- |
| 60 to 80% | 80 to 100% | O=C1CCC(N2Cc3c(CN4CCN(c5ccccn5)CC4)cccc3C2=S)C(=O)N1 (stereo not drawn) [GT-08691, 3-(4-((4-(pyridin-2-yl)piperazin-1-yl)methyl)-1-thioxoisoindolin-2-yl)piperidine-2,6-dione] | – | – | – | – | – | – | B (80%< substrate protein remaining %≤ 100%) | B (80%< substrate protein remaining %≤ 100%) | A (0% ≤ substrate protein remaining % ≤ 80%) | B (80%< substrate protein remaining %≤ 100%) | B (80%< substrate protein remaining %≤ 100%) | B (80%< substrate protein remaining %≤ 100%) |
| 60 to 80% | 80 to 100% | O=C1CCC(N2Cc3c(CN4CCN(c5ccc(Cl)nc5)CC4)cccc3C2=S)C(=O)N1 (stereo not drawn) [GT-08723, 3-(4-((4-(6-chloropyridin-3-yl)piperazin-1-yl)methyl)-1-thioxoisoindolin-2-yl)piperidine-2,6-dione] | – | – | – | – | – | – | B (80%< substrate protein remaining %≤ 100%) | A (0% ≤ substrate protein remaining % ≤ 80%) | A (0% ≤ substrate protein remaining % ≤ 80%) | B (80%< substrate protein remaining %≤ 100%) | A (0% ≤ substrate protein remaining % ≤ 80%) | A (0% ≤ substrate protein remaining % ≤ 80%) |
| 60 to 80% | 80 to 100% | O=C1CCC(N2Cc3c(CN4CCN(c5ccncc5)CC4)cccc3C2=S)C(=O)N1 (stereo not drawn) [GT-08726, 3-(4-((4-(pyridin-4-yl)piperazin-1-yl)methyl)-1-thioxoisoindolin-2-yl)piperidine-2,6-dione] | – | – | – | – | – | – | B (80%< substrate protein remaining %≤ 100%) | A (0% ≤ substrate protein remaining % ≤ 80%) | A (0% ≤ substrate protein remaining % ≤ 80%) | B (80%< substrate protein remaining %≤ 100%) | A (0% ≤ substrate protein remaining % ≤ 80%) | A (0% ≤ substrate protein remaining % ≤ 80%) |
| 60 to 80% | 80 to 100% | Cc1nc(C2=CCN(Cc3cccc4c3CN(C3CCC(=O)NC3=O)C4=S)CC2)c2c(-c3ccccc3)csc2n1 (stereo not drawn) [GT-08958, 3-(4-((4-(2-methyl-5-phenylthieno[2,3-d]pyrimidin-4-yl)-3,6-dihydropyridin-1(2H)-yl)methyl)-1-thioxoisoindolin-2-yl)piperidine-2,6-dione] | B (80%< substrate protein remaining %≤ 100%) | B (80%< substrate protein remaining %≤ 100%) | A (0% ≤ substrate protein remaining % ≤ 80%) | B (80%< substrate protein remaining %≤ 100%) | B (80%< substrate protein remaining %≤ 100%) | B (80%< substrate protein remaining %≤ 100%) | – | – | – | – | – | – |
| 53 to 60% | 80 to 100% | Cc1nc(N2CCN(Cc3cccc4c3CN(C3CCC(=O)NC3=O)C4=S)CC2)c2c3c(sc2n1)CCC3 (stereo not drawn) [GT-08926, 3-(4-((4-(2-methyl-6,7-dihydro-5H-cyclopenta[4,5]thieno[2,3-d]pyrimidin-4-yl)piperazin-1-yl)methyl)-1-thioxoisoindolin-2-yl)piperidine-2,6-dione] | B (80%< substrate protein remaining %≤ 100%) | B (80%< substrate protein remaining %≤ 100%) | A (0% ≤ substrate protein remaining % ≤ 80%) | B (80%< substrate protein remaining %≤ 100%) | B (80%< substrate protein remaining %≤ 100%) | B (80%< substrate protein remaining %≤ 100%) | – | – | – | – | – | – |
| 60 to 80% | 80 to 100% | O=C1CCC(N2Cc3c(CN4CCN(c5ncccc5Cl)CC4)cccc3C2=S)C(=O)N1 (stereo not drawn) [GT-08696, 3-(4-((4-(3-chloropyridin-2-yl)piperazin-1-yl)methyl)-1-thioxoisoindolin-2-yl)piperidine-2,6-dione] | – | – | – | – | – | – | B (80%< substrate protein remaining %≤ 100%) | B (80%< substrate protein remaining %≤ 100%) | A (0% ≤ substrate protein remaining % ≤ 80%) | B (80%< substrate protein remaining %≤ 100%) | B (80%< substrate protein remaining %≤ 100%) | B (80%< substrate protein remaining %≤ 100%) |
| 60 to 80% | 80 to 100% | O=C1CCC(N2Cc3c(CN4CCN(c5ncccn5)CC4)cccc3C2=S)C(=O)N1 (stereo not drawn) [GT-08812, 3-(4-((4-(pyrimidin-2-yl)piperazin-1-yl)methyl)-1-thioxoisoindolin-2-yl)piperidine-2,6-dione] | – | – | – | – | – | – | B (80%< substrate protein remaining %≤ 100%) | B (80%< substrate protein remaining %≤ 100%) | A (0% ≤ substrate protein remaining % ≤ 80%) | B (80%< substrate protein remaining %≤ 100%) | B (80%< substrate protein remaining %≤ 100%) | B (80%< substrate protein remaining %≤ 100%) |
